This is an account of results in ChEMBL document CHEMBL5537189 (J Med Chem, 2024).

Experiment [1] has as its target T1, Retinoic acid receptor RXR-gamma (Homo sapiens, UniProt P48443).
T1 sequence (P48443 whole entry): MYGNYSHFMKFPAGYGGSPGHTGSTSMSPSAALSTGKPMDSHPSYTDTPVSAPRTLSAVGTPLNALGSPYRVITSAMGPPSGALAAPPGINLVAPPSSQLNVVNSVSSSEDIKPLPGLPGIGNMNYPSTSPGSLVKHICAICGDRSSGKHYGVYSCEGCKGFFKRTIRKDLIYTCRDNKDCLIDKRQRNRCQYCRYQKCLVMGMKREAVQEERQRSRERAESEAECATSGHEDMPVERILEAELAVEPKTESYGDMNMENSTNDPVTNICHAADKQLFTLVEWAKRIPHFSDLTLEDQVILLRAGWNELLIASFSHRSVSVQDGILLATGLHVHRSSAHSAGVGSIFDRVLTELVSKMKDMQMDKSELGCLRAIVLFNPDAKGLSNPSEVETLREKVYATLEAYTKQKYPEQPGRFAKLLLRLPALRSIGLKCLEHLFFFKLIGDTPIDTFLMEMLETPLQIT

The target of experiment [2] is T2, Retinoic acid receptor RXR-alpha (Homo sapiens, UniProt P19793).
T2 sequence (P19793 whole entry): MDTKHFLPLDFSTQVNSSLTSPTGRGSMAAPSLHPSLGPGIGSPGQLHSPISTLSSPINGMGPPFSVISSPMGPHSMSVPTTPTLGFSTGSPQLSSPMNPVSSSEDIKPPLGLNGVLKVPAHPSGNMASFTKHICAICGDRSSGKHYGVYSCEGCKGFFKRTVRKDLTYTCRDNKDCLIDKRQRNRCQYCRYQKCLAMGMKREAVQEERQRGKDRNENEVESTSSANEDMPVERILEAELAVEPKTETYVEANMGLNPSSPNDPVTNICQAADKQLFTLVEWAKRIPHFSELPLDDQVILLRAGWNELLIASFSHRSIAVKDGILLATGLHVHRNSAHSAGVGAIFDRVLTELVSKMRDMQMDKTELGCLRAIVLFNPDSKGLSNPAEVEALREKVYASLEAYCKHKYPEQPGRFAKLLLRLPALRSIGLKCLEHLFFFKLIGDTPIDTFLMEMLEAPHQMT

For experiment [3], the target named is T3, Retinoic acid receptor RXR-beta (Homo sapiens, UniProt P28702).
T3 sequence (P28702 whole entry): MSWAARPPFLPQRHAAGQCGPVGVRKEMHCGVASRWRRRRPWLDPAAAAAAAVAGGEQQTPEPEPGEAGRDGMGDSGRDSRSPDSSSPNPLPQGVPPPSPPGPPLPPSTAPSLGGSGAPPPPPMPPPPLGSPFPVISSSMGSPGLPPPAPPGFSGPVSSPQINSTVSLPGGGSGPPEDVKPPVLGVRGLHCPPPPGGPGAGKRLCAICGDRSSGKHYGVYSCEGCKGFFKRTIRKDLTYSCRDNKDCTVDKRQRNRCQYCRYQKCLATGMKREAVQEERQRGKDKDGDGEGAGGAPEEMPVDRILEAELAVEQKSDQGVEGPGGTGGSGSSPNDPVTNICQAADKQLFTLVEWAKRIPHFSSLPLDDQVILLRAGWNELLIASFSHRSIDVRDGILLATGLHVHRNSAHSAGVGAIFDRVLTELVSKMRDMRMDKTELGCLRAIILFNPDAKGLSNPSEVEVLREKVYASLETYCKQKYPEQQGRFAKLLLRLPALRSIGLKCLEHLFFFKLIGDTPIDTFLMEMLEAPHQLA
Description: Partial agonist activity at recombinant human RXR beta LBD (298 to 533 residues) expressed in Escherichia coli Rosetta incubated for 16 hrs by Gal4-hybrid reporter gene based Dual-glo luciferase assay

Experiment [4] concerns the target T3, Retinoic acid receptor RXR-beta. The experiment in a line: Partial agonist activity at full length human RXR beta transfected in HEK293T cells assessed as DR1 activation incubated for 16 hrs by Dual-glo luciferase assay. The class given is cell-based.

Broadly, the EC50 is the concentration that produces a half-maximal response. As for `CN(c1ccc(Cl)c(Cl)c1)c1cc(Cl)nc(OCCC(=O)O)n1`, the half-maximal effective concentration (EC50) in experiment [1] came out at 6000 nM.

Turning to `Cc1ccc2c(c1)N(c1cc(Cl)nc(OCCC(=O)O)n1)CCC2`, the EC50 in experiment [2] was determined as 38 nM.

On to `CN(c1ccccc1)c1cc(Cl)nc(OCCC(=O)O)n1`, for which the EC50 came out at 4200 nM in experiment [2] and 31000 nM in experiment [1].

With `CC1CCN(c2cc(Cl)nc(OCCC(=O)O)n2)c2cc(Cl)ccc21` (stereo unspecified), a half-maximal response in experiment [1] (EC50) required 100 nM.

In experiment [1], `CN(c1cc(Cl)nc(OCCC(=O)O)n1)c1cccc2c1CCC2` came in with an EC50 of 1200 nM.

For the molecule `CC1(C)CCN(c2cc(Cl)nc(OCCC(=O)O)n2)c2ccccc21`, the EC50 worked out at 9 nM in experiment [2] and 11 nM in experiment [1].

For the molecule `Cc1cccc(N(C)c2cc(Cl)nc(OCCC(=O)O)n2)c1`, the EC50 in experiment [2] was 400 nM; in experiment [1], 2600 nM.

With `Cc1cccc2c1CCCN2c1cc(Cl)nc(OCCC(=O)O)n1`, the figures for the EC50 in experiment [2] and in experiment [1] were 90 nM and 480 nM, respectively.

Take `CN(c1cccc(C(F)(F)F)c1)c1cc(Cl)nc(OCCC(=O)O)n1`: in experiment [1], the concentration for a half-maximal effect (EC50) was found to be 2700 nM.

Molecule `CN(c1cccc(Br)c1)c1cc(Cl)nc(OCCC(=O)O)n1` registered an EC50 in experiment [1] of 1800 nM.

As for `CC1CCN(c2cc(Cl)nc(OCCC(=O)O)n2)c2ccccc21` (stereo unspecified), the values for the EC50 in experiment [2], in experiment [3] and in experiment [1] were 7 nM, 100 nM and 50 nM, respectively.

In experiment [2], `CN(c1cc(Cl)cc(Cl)c1)c1cc(Cl)nc(OCCC(=O)O)n1` returned an EC50 of 260 nM.

Consider `CN(c1cc(Cl)nc(OCCC(=O)O)n1)c1cccc(Cl)c1Cl`, for which the EC50 came to 3200 nM in experiment [2] and 14000 nM in experiment [1].

Regarding `Cc1ccc2c(c1)N(c1cc(Cl)nc(OCCC(=O)O)n1)CCC2C` (stereo unspecified), the values for the EC50 in experiment [2], in experiment [3] and in experiment [1] were 40 nM, 34 nM and 60 nM, respectively.

Turning to `O=C(O)CCOc1nc(Cl)cc(N2CCCc3ccccc32)n1`, the values for the EC50 in experiment [2] and in experiment [1] were 110 nM and 680 nM, respectively.

As for `CC1CCc2ccccc2N1c1cc(Cl)nc(OCCC(=O)O)n1` (stereo unspecified), the EC50 entry in experiment [4] is given as “Not Active”.

In experiment [1], `Cc1cc(C)cc(N(C)c2cc(Cl)nc(OCCC(=O)O)n2)c1` came in with an EC50 of 160 nM.

Regarding `O=C(O)CCOc1nc(Cl)cc(N2CCCc3ccc(Cl)cc32)n1`, the EC50 in experiment [2] turned out to be 19 nM; in experiment [1], 140 nM.

Take `CN(c1cccc(Cl)c1)c1cc(Cl)nc(OCCC(=O)O)n1`: the values for the EC50 in experiment [2] and in experiment [1] were 560 nM and 2400 nM, respectively.

Take `CN(c1cc(C(F)(F)F)cc(C(F)(F)F)c1)c1cc(Cl)nc(OCCC(=O)O)n1`: in experiment [2], the response was half-maximal at 150 nM (EC50).

Regarding `CC1Cc2ccccc2N(c2cc(Cl)nc(OCCC(=O)O)n2)C1` (stereo unspecified), the EC50 came to 29 nM in experiment [2], 34 nM in experiment [3] and 220 nM in experiment [1].

Regarding `Cc1cc(C)c2c(c1)N(c1cc(Cl)nc(OCCC(=O)O)n1)CCC2`, the EC50 in experiment [1] amounted to 40 nM.
